In patent US8946423B2, “Highly soluble salt of pyrroloquinoline quinone and method for producing the same” (Mitsubishi Gas Chemical Company, Inc., priority 2010, dated 2015):

Test: Dissolution test: salts dissolved up to saturation, solubility determined by absorbance at 450 nm
Conditions: for solubility of pyrroloquinoline, mmol/L / solubility of pyrroloquinoline: saturation at room temperature of 23 to 28° C.; for Relative Ratio (solubility): relative to Disodium Salt of PQQ in water = 1
Procedure: The disodium salt of PQQ obtained by the method as described in Example 1 was used.
These salts were dissolved up to saturation at room temperature of 23 to 28° C., and these solutions each were diluted by 20 times or 400 times with a phosphate buffer having a pH of 7.5. For the diluted solutions each, an analysis of the ultraviolet-visible absorption spectra was carried out using a HITACHI U-2000 spectrometer.

Compound	solubility in ethanol (in words)	solubility of pyrroloquinoline, mmol/L (Solvent Ethanol)	solubility of pyrroloquinoline, mmol/L (Solvent Water)	Relative Ratio (solubility) (Solvent Ethanol)	solubility of pyrroloquinoline (Solvent Ethanol)	Relative Ratio (solubility) (Solvent Water)	solubility of pyrroloquinoline (Solvent Water)
O=C([O-])c1cc(C(=O)[O-])c2c(n1)C(=O)C(=O)c1cc(C(=O)O)[nH]c1-2.[Na+].[Na+] [Disodium Salt of PQQ, reference compound]	almost insoluble						
C[N+](C)(C)CCO.C[N+](C)(C)CCO.C[N+](C)(C)CCO.O=C(O)c1cc(C(=O)O)c2c(n1)C(=O)C(=O)c1cc(C(=O)O)[nH]c1-2 [Tricholine Salt of PQQ]		≥ 171 or mmol/L	≥ 171 or mmol/L				
Dicholine Salt of PQQ				13.9	111 mM	11.8	94 mM
Monocholine Salt of PQQ				0.06	0.52 mM	0.24	1.94 mM
